Laboratory results: article PMC8159961, “Exploring protein hotspots by optimized fragment pharmacophores” (Nature Communications, 2021)
“And” between values parts separate entries of the source, which are not always exact repeats. Equal entries are not always repeated. Where two headings read alike, the source gives them in different places.

Assays:
human 5-HT1A receptor = target: T1, human 5-HT1A receptor (Homo sapiens, UniProt P08908); experiment: GPCR radioligand binding assay, [3H]-8-OH-DPAT displacement, HEK293 membranes
T1 construct: expressed in transfected cells
T1 sequence (P08908 1-422): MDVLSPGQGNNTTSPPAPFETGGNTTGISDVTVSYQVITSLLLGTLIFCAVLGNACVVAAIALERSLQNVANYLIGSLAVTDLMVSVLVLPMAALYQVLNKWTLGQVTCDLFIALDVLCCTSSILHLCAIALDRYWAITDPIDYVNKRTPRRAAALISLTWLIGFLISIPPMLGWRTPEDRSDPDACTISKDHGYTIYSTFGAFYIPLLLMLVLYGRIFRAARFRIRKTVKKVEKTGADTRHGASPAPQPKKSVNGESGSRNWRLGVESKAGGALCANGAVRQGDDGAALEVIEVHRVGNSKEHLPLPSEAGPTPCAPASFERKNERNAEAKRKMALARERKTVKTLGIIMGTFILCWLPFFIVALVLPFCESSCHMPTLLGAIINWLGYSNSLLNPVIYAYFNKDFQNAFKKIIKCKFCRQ

human 5-HT6 receptor = target: T2, human 5-HT6 receptor (Homo sapiens, UniProt P50406); experiment: GPCR radioligand binding assay, [3H]-LSD displacement, HEK293 membranes
T2 construct: expressed in transfected cells
T2 sequence (P50406 whole entry): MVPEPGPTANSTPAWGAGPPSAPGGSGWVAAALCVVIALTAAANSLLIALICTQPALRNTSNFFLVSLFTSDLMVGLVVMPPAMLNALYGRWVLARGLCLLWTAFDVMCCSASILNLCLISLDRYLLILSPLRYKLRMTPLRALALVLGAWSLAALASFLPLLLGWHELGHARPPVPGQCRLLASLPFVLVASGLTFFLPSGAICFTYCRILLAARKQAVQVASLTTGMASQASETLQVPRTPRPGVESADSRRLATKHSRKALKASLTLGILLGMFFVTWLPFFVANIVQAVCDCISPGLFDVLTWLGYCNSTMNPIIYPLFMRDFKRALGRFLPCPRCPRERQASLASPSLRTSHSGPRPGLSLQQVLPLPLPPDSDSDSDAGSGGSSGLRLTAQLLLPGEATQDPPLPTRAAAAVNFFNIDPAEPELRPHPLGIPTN

human 5-HT7b receptor = target: T3, human 5-HT7b receptor (Homo sapiens, UniProt P34969); experiment: GPCR radioligand binding assay, [3H]-5-CT displacement, HEK293 membranes
T3 construct: expressed in transfected cells
T3 sequence (P34969 1-432): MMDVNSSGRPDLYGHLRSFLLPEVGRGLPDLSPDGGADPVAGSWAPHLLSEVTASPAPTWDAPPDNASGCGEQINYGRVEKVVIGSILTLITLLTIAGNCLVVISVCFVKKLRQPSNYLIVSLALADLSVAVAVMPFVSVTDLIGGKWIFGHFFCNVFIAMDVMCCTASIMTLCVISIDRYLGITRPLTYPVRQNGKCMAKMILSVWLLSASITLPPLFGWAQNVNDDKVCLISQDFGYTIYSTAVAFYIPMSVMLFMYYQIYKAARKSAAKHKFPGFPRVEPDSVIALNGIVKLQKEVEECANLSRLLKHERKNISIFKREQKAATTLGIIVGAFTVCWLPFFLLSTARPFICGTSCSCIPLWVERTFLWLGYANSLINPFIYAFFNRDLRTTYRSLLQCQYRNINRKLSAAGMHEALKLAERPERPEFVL

bovine factor Xa = target: T4, bovine factor Xa (Bos taurus, UniProt P00743); experiment: Protease inhibitory assay, chromogenic substrate S-2222; assay type: biochemical; details: for vinit: replicate values
T4 construct: bovine factor Xa, Chromogenix, 2 nkat/mL; purchased Chromogenix
T4 sequence (P00743 234-492 limits assumed): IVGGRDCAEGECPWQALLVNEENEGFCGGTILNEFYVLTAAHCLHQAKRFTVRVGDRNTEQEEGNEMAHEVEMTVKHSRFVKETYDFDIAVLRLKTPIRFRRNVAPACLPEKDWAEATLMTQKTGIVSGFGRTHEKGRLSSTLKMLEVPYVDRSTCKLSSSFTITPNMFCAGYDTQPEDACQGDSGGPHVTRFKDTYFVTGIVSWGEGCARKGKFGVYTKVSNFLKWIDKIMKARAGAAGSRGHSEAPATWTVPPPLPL
T4 sequence (P00743 41-180 partner limits assumed): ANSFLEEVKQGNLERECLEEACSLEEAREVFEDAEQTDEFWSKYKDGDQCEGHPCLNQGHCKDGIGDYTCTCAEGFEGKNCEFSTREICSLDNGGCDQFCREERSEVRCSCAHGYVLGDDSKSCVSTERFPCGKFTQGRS

human thrombin = target: T5, human thrombin (Homo sapiens, UniProt P00734); experiment: Protease inhibitory assay, chromogenic substrate S-2238; assay type: biochemical; details: for Ki: plate layout, label = plate position, Cheng-Prusoff, Km 2.6 µM, read-out: Thrombin Ki
T5 construct: human thrombin; purchased Sigma-Aldrich

[1] = 10 µM, read-out: 5-HT1A % Inhibition by plate position
[2] = 5-HT1A, average of exp_1 and exp_2, read-out: %inh 5-HT1A average
[3] = 5-HT1A, average, values below 0 and above 100% were set as 0 and 100, read-out: %inh 5-HT1A corrected*
[4] = 5-HT1A, replicate exp_1, read-out: %inh 5-HT1A exp_1
[5] = 5-HT1A, replicate exp_2, read-out: %inh 5-HT1A exp_2
[6] = 10 µM, read-out: 5-HT6 % Inhibition by plate position
[7] = 5-HT6, average of exp_1 and exp_2, read-out: %inh 5-HT6 average
[8] = 5-HT6, average, values below 0 and above 100% were set as 0 and 100, read-out: %inh 5-HT6 corrected*
[9] = 5-HT6, replicate exp_1, read-out: %inh 5-HT6 exp_1
[10] = 5-HT6, replicate exp_2, read-out: %inh 5-HT6 exp_2
[11] = 10 µM, read-out: 5-HT7 % Inhibition by plate position
[12] = 5-HT7, average of exp_1 and exp_2, read-out: %inh 5-HT7 average
[13] = 5-HT7, average, values below 0 and above 100% were set as 0 and 100, read-out: %inh 5-HT7 corrected*
[14] = 5-HT7, replicate exp_1, read-out: %inh 5-HT7 exp_1
[15] = 5-HT7, replicate exp_2, read-out: %inh 5-HT7 exp_2
[16] = plate layout, label = plate position, Cheng-Prusoff, Km 164 µM, read-out: Factor Xa Ki
[17] = FactorXa Ki determination, substrate 100 µM, cmpd conc 200 µM
[18] = FactorXa Ki determination, substrate 200 µM, cmpd conc 200 µM
[19] = FactorXa primary screening, substrate 100 µM, cmpd conc 200 µM

| SMILES | inhibition at 10 µM (human 5-HT1A receptor; [1]) [%] | inhibition at 10 µM (human 5-HT1A receptor; [2]) [%] | inhibition at 10 µM (human 5-HT1A receptor; [3]) [%] | inhibition at 10 µM (human 5-HT1A receptor; [4]) [%] | inhibition at 10 µM (human 5-HT1A receptor; [5]) [%] | inhibition at 10 µM (human 5-HT6 receptor; [6]) [%] | inhibition at 10 µM (human 5-HT6 receptor; [7]) [%] | inhibition at 10 µM (human 5-HT6 receptor; [8]) [%] | inhibition at 10 µM (human 5-HT6 receptor; [9]) [%] | inhibition at 10 µM (human 5-HT6 receptor; [10]) [%] | inhibition at 10 µM (human 5-HT7b receptor; [11]) [%] | inhibition at 10 µM (human 5-HT7b receptor; [12]) [%] | inhibition at 10 µM (human 5-HT7b receptor; [13]) [%] | inhibition at 10 µM (human 5-HT7b receptor; [14]) [%] | inhibition at 10 µM (human 5-HT7b receptor; [15]) [%] | Ki (bovine factor Xa; [16]) [µM] | Ki (bovine factor Xa) [µM] | Ki (human thrombin) [µM] | other results |
| --- | --- | --- | --- | --- | --- | --- | --- | --- | --- | --- | --- | --- | --- | --- | --- | --- | --- | --- | --- |
| Cn1c(N)nc2ccccc21 [A6] | 0 | -7 | 0 | -18 | 3 | 25 | 25 | 25 | 22 | 29 | 0 | -10 | 0 | -3 | -18 | 277 |  |  |  |
| Oc1ccccc1N1CCCCC1 [A12] | 0 | -10 | 0 | 3.37 | -23 | 55 | 55 | 55 | 69 | 42 | 0 | -0.0781 | 0 | -4.73 | 4.58 | 611 |  |  |  |
| COc1ccccc1CC1CCNCC1 [B12] |  |  |  |  |  |  |  |  |  |  |  |  |  |  |  |  | 401 |  | inhibition at 10 µM (human 5-HT1A receptor; read-out: 5-HT1A % Inhibition by plate position): 50%; inhibition at 10 µM (human 5-HT1A receptor; read-out: %inh 5-HT1A average): 50%; inhibition at 10 µM (human 5-HT1A receptor; read-out: %inh 5-HT1A corrected*): 50%; inhibition at 10 µM (human 5-HT1A receptor; read-out: %inh 5-HT1A exp_1): 52%; inhibition at 10 µM (human 5-HT1A receptor; read-out: %inh 5-HT1A exp_2): 48%; inhibition at 10 µM (human 5-HT6 receptor; read-out: 5-HT6 % Inhibition by plate position): 76%; inhibition at 10 µM (human 5-HT6 receptor; read-out: %inh 5-HT6 average): 76%; inhibition at 10 µM (human 5-HT6 receptor; read-out: %inh 5-HT6 corrected*): 76%; inhibition at 10 µM (human 5-HT6 receptor; read-out: %inh 5-HT6 exp_1): 84%; inhibition at 10 µM (human 5-HT6 receptor; read-out: %inh 5-HT6 exp_2): 68%; inhibition at 10 µM (human 5-HT7b receptor; read-out: 5-HT7 % Inhibition by plate position): 54%; inhibition at 10 µM (human 5-HT7b receptor; read-out: %inh 5-HT7 average): 54%; inhibition at 10 µM (human 5-HT7b receptor; read-out: %inh 5-HT7 corrected*): 54%; inhibition at 10 µM (human 5-HT7b receptor; read-out: %inh 5-HT7 exp_1): 45%; inhibition at 10 µM (human 5-HT7b receptor; read-out: %inh 5-HT7 exp_2): 63% |
| Nc1nnc(-c2cccs2)[nH]1 [D3] | 0.863 | 0.863 | 0.863 | 1.73 | 0 | 52 | 52 | 52 | 52 | 53 | 0 | -1.67 | 0 | 1.55 | -5 |  |  | 181 |  |
| c1ccc(Nc2nncs2)cc1 [D8] | 0 | -2.41 | 0 | -10 | 5.56 | 1.55 | 1.55 | 1.55 | 9 | -6 | 0 | -12 | 0 | -3.33 | -21 | 733 |  |  |  |
| O=C(O)C1CCN(c2ncccn2)CC1 [E9] | 3 | 3 | 3 | 11 | -4.35 | 29 | 29 | 29 | 32 | 26 | 0 | -8.55 | 0 | 3.77 | -21 |  |  | 76 |  |
| O=C(c1ccccc1F)N1CCNCC1 [E12] | 15 | 15 | 15 | 13 | 17 | 17 | 17 | 17 | 12 | 22 | 0 | -6 | 0 | -4.53 | -8 |  | 510 |  |  |
| O=C(O)c1cnc(-c2ccccc2)s1 [F3] | 2.52 | 2.52 | 2.52 | -2.47 | 7.5 | 41 | 41 | 41 | 48 | 34 | 0 | -18 | 0 | -6 | -31 |  |  | 271 |  |
| O=C1NC(=O)/C(=C\c2cccs2)N1 [H12] | 3.44 | 3.44 | 3.44 | 7 | -0.195 | 32 | 32 | 32 | 31 | 32 | 3.77 | 3.77 | 3.77 | 6 | 1.68 |  | 466 |  |  |
| Cc1cc2ccccc2nc1N [SX-A1] |  |  |  |  |  |  |  |  |  |  |  |  |  |  |  |  |  |  | V0 / Vi (human thrombin; Thrombin primary screening, substrate 40 µM, cmpd conc 500 µM): 0.95; vinit (human thrombin; Thrombin primary screening, substrate 40 µM, cmpd conc 500 µM, replicate values): 30.291 and 31.236; V0 / Vi (bovine factor Xa; [17]): 1.84; vinit, avrg. (bovine factor Xa; [17]): 8.852; vinit (bovine factor Xa; [17]): 8.688 and 8.852 and 9.02; V0 / Vi (bovine factor Xa; [18]): 1.59; vinit (bovine factor Xa; [18]): 22.63 and 23.206 and 22.86; V0 / Vi (bovine factor Xa; [19]): 1.83; vinit (bovine factor Xa; [19]): 9.345 and 9.782; Ki (bovine factor Xa; FactorXa, substrate 100 µM, cmpd conc 200 µM, one of two values averaged in Supplementary Data 1, read-out: Ki): 148 µM; Ki (bovine factor Xa; FactorXa, substrate 200 µM, cmpd conc 200 µM, one of two values averaged in Supplementary Data 1, read-out: Ki): 152 µM |
